Assay results: patent publication US20050255042A1, “On-demand cleavable linkers for radioconjugates for cancer imaging and therapy” (The Regents of the University of California Office of …, priority 2003, published 2005)
One block for each substance: values may come before it.

What was measured:
[1] = 1.25 mg/kg body weight over 3 hours; 8 of 73 patients; cited from earlier work
[2] = in vivo; cited from earlier work
[3] = molecular target: t-PA (Homo sapiens, UniProt P00750); details: cited from earlier work
t-PA, sequence (P00750 36-562, species assumed): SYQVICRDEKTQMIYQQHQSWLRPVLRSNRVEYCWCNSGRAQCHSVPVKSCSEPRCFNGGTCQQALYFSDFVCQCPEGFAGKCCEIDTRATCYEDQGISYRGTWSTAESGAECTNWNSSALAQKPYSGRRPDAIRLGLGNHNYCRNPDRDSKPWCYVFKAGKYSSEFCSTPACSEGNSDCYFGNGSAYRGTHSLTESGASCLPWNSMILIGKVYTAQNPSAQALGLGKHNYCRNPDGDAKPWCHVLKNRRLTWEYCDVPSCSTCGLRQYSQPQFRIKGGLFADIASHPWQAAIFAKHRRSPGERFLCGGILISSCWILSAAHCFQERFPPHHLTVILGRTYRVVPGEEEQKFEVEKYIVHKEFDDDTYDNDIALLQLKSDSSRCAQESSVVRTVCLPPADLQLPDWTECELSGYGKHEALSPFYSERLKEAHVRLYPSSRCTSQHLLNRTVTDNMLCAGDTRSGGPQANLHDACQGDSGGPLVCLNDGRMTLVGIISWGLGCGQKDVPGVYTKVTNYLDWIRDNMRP

[4] = molecular target: T1, TNKase® (Homo sapiens, UniProt P00750, H332A/K331A/N152Q/R333A/R334A/T138N); experiment: Cleavage of soluble peptides in plasma plus TNKase®, fluorescence plate reader; format: biochemical
T1 construct: Activase® is a purified glycoprotein of 527 amino acids produced by recombinant DNA technology; purchased Genentech; host or cells: Chinese Hamster Ovary cells
T1 sequence (P00750 36-562 T138N/N152Q/K331A/H332A/R333A/R334A): as the sequence (P00750 36-562, species assumed) above, with T103N, N117Q, K296A, H297A, R298A, R299A counted along it
Protocol: (§1) The peptides in Table 3 were re-synthesized in soluble form with nitrotyrosine (Y(NO2) at the N-terminus and Abz at the ε-amino group of the lysine residue (k(Abz)) at the C-terminus. They were then incubated with human plasma alone or plasma plus TNKase® in a 96-well plate and the cleavage reaction was monitored over a period of time with a fluorescent plate reader. Each well contained 90 μM of peptides, 10 μl of plasma in PBS, ph 7.2, with or without 1 μg of TNKase®, in a final volume of 100 μl. Cleavage was measured as fluorescence intensity at different time intervals in the fluorescence plate reader at 360/440 nm excitation and emission range.

[5] = Cleavage of soluble peptides in human plasma alone, fluorescence plate reader; format: in vitro ADME; details: 90 μM peptide, 10 μl plasma in PBS pH 7.2, without TNKase®
Protocol: as §1

Substance: Activase®: purified recombinant t-PA glycoprotein of 527 amino acids, from Genentech
patients with a decrease in fibrinogen to below 100 mg/dl [1]: 11%
initial plasma half-life [2]: 5 min
plasma clearance [2]: 380 to 570 mL/min

Substance: GGSG PFGR↓SA LVPEE
hydrolysis efficiency by t-PA versus a peptide of similar length from the native cleavage site of plasminogen [3]: 5000 fold

time to complete degradation by TNKase® ([4]; 10 μg/ml TNKase®): ≤ 2 h
degradation on incubation with TNKase® ([4]; 10 μg/ml TNKase®, two hours): completely degraded
susceptibility to TNKase® cleavage ([4]; plasma plus TNKase®): rapidly degraded
stability / cleavage in human plasma [5]: completely stable
Substance: rqYKYkf [compound 20]
